16 molecules from paper PMC5681660, “Reduced hepatitis B and D viral entry using clinically applied drugs as novel inhibitors of the bile acid transporter NTCP” (Scientific Reports, 2017) can be followed below.

Structures can show the parent of a compound that is named as a salt.

Assay [1] has as its target T1, human NTCP (Homo sapiens, UniProt Q14973).
T1 sequence (Q14973 1-349): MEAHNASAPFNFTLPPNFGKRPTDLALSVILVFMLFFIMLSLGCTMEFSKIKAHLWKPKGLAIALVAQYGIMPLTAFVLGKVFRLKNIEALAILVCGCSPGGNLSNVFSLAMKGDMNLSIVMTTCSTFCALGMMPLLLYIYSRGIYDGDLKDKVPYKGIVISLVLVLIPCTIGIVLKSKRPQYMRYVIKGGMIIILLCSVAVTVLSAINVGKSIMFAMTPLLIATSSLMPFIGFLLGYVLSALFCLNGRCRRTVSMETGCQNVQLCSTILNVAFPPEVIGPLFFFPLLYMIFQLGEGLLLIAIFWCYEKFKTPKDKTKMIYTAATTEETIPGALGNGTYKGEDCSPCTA
Kind of assay: Screening taurocholate uptake assay (96-well, [14C]taurocholate, 10 µM drug). The conditions noted are these: for B-score functional assay: 10 µM drug.

Assay [2] concerns the target T1, human NTCP. Kind of assay: Screening fluorescent competitive Myrcludex B-FITC binding assay (96-well, 10 µM drug). To be noted: 10 µM drug.
[3] abbreviates: Prestwick library screen, taurocholate uptake.
The mark [4] stands for this setting: ranking score beside the functional and binding assay B-scores of the screen.
The mark [5] stands for this setting: Prestwick library screen, Myrcludex B-FITC binding.
Where [6] appears, read: Prestwick library screen, B-score of taurocholate uptake.
Where [7] appears, read: combined ranking from functional and binding assay B-scores.
Setting [8] is: Prestwick library screen, B-score of Myrcludex B-FITC binding.
Where [9] appears, read: combined ranking from functional and binding screening assays.
Setting [10] is: screen, Myrcludex B-FITC binding.

In turn, `CC(C)(C)C(=O)OCOC(=O)[C@@H]1N2C(=O)[C@@H](/N=C/N3CCCCCC3)[C@H]2SC1(C)C` [Pivmecillinam hydrochloride] returned a B-score functional assay at human NTCP [1] (setting [3]) of -0.103. For the same molecule, on human NTCP [1] (setting [4]), the Ranking score was found to be 729.338. Also, at human NTCP [2] (setting [5]), the B-score binding assay came to 0.838.

With `C[C@H](N[C@@H](CCc1ccccc1)C(=O)O)C(=O)N1CCC[C@H]1C(=O)O.O.O` [Enalaprilat dihydrate], at human NTCP [1] (setting [3]), the B-score functional assay stood at 0.051. The molecule further yielded a Ranking score on human NTCP [1] (setting [4]) of 844.248. Further, the B-score binding assay at human NTCP [2] (setting [5]) was 0.874.

As for `CN1CCN(CC(=O)N2c3ccccc3C(=O)Nc3cccnc32)CC1` [Pirenzepine dihydrochloride], on human NTCP [1] (setting [6]), the B-score functional assay is 0.753. On human NTCP [1] (setting [7]), the Ranking score turned out to be 857.349. The B-score binding assay at human NTCP [2] (setting [8]) was determined as 0.089.

Consider `CN(C)CCCSC(=N)N.Cl.Cl` [Dimaprit dihydrochloride], for which, on human NTCP [1] (setting [6]), the B-score functional assay stood at 0.472. Also, the Ranking score at human NTCP [1] (setting [7]) is 1022.56. The molecule also had a B-score binding assay on human NTCP [2] (setting [8]) of 1.724.

As for `Clc1ccc(C(Cn2ccnc2)OCc2c(Cl)cccc2Cl)c(Cl)c1` (stereo not drawn) [Isoconazole], the B-score functional assay at human NTCP [1] (setting [6]) was 0.797. Also, the Ranking score on human NTCP [1] (setting [7]) came to 1126.41. The molecule also yielded a B-score binding assay at human NTCP [2] (setting [8]) of 2.982.

At human NTCP [1] (setting [3]), `CN[C@@H]1C[C@@H](c2ccc(Cl)c(Cl)c2)c2ccccc21` [Indatraline hydrochloride] yielded a B-score functional assay of 0.152. On human NTCP [1] (setting [4]), this molecule displayed a Ranking score of 814.16. For the same molecule, the B-score binding assay at human NTCP [2] (setting [5]) was determined as 0.336.

As for `CN1CCC2(C)c3cc(O)ccc3N(C)C12.O=C(O)/C=C/C(=O)O` (single isomer, unassigned; (-)) [(-)-Eseroline fumarate salt], the B-score functional assay at human NTCP [1] (setting [3]) worked out at 0.19. Moreover, the Ranking score at human NTCP [1] (setting [4]) came out at 803.481. This molecule also came in with a B-score binding assay at human NTCP [2] (setting [5]) of 0.233.

As for `[H]/N=C(\N/C(=N/[H])Nc1ccc(Cl)cc1)NC(C)C` [Proguanil hydrochloride], the Ranking score on human NTCP [1] (setting [9]) turned out to be 309.176. This molecule also had a B-score functional assay on human NTCP [1] (screen, taurocholate uptake) of -0.025. The molecule further displayed a B-score binding assay on human NTCP [2] (setting [10]) of -1.489.

As to `O=C(CCCN1CCC(O)(c2ccc(Br)cc2)CC1)c1ccc(F)cc1` [Bromperidol], the B-score functional assay at human NTCP [1] (setting [3]) was 0.496. The molecule further returned a Ranking score at human NTCP [1] (setting [4]) of 757.533. For the same molecule, on human NTCP [2] (setting [5]), the B-score binding assay was -0.002.

`O=C(NCNC(=O)NC1C(=O)NC(=O)N1CO)NC1C(=O)NC(=O)N1CO` (stereo not drawn) [Imidurea]: the B-score functional assay on human NTCP [1] (setting [6]) was 1.058. In addition, on human NTCP [1] (setting [7]), the Ranking score is 960.608. The same molecule gave a B-score binding assay at human NTCP [2] (setting [8]) of 0.346.

Molecule `O=C1NCC2(CCN(CCc3ccccc3)CC2)O1` [Fenspiride hydrochloride] showed a B-score functional assay at human NTCP [1] (setting [3]) of 0.107. Besides, the Ranking score at human NTCP [1] (setting [4]) was found to be 788.391. The molecule also gave a B-score binding assay on human NTCP [2] (setting [5]) of 0.26.

`CN(C)[C@@H]1C(O)=C(C(N)=O)C(=O)[C@@]2(O)C(O)=C3C(=O)c4c(O)ccc(Cl)c4[C@@H](O)[C@H]3C[C@@H]12` [Demeclocycline hydrochloride]: on human NTCP [1] (setting [3]), the B-score functional assay is 0.083. Also, on human NTCP [1] (setting [4]), the Ranking score came out at 738.496. The molecule further came in with a B-score binding assay at human NTCP [2] (setting [5]) of 0.096.

In turn, `C[C@@H](O)[C@H]1C(=O)N2C(C(=O)O)=C(S[C@@H]3CN[C@H](C(=O)N(C)C)C3)[C@H](C)[C@H]12` [Meropenem] came in with a B-score functional assay at human NTCP [1] (setting [6]) of 0.4. Also, the Ranking score on human NTCP [1] (setting [7]) amounted to 900.139. Moreover, at human NTCP [2] (setting [8]), the B-score binding assay was found to be 0.55.

On human NTCP [1] (setting [3]), `NC(=O)N1c2ccccc2C=Cc2ccccc21` [Carbamazepine] gave a B-score functional assay of -0.062. The molecule also registered a Ranking score on human NTCP [1] (setting [4]) of 671.795. Besides, the B-score binding assay on human NTCP [2] (setting [5]) is 0.183.

Turning to `O=C(Oc1cccc2cccnc12)c1ccccc1` [Benzoxiquine], at human NTCP [1] (setting [9]), the Ranking score was 381.13. At human NTCP [1] (screen, taurocholate uptake), this molecule gave a B-score functional assay of -0.093. Besides, the B-score binding assay at human NTCP [2] (setting [10]) is -0.876.

For the molecule `Cc1ccc(C(=O)c2cc(O)c(O)c([N+](=O)[O-])c2)cc1` [Tolcapone], the Ranking score at human NTCP [1] (setting [9]) is given as 424.338. For the same molecule, at human NTCP [1] (screen, taurocholate uptake), the B-score functional assay was -1.594. The B-score binding assay on human NTCP [2] (setting [10]) stood at 1.049.
